In patent publication US10703756B2, “Pyrrolo[2,3-D]pyrimidinyl, pyrrolo[2,3-B]pyrazinyl, pyrrolo[2,3-B]pyridinyl acrylamides and epoxides thereof” (Pfizer Inc., priority 2015, dated 2020):

Experiments:
[1] = molecular target: T1, JAK3 enzyme (Homo sapiens, UniProt P52333); assay: JAK Caliper Enzyme Assay at 4 μM ATP; type: biochemical
T1 sequence (P52333 1-1124): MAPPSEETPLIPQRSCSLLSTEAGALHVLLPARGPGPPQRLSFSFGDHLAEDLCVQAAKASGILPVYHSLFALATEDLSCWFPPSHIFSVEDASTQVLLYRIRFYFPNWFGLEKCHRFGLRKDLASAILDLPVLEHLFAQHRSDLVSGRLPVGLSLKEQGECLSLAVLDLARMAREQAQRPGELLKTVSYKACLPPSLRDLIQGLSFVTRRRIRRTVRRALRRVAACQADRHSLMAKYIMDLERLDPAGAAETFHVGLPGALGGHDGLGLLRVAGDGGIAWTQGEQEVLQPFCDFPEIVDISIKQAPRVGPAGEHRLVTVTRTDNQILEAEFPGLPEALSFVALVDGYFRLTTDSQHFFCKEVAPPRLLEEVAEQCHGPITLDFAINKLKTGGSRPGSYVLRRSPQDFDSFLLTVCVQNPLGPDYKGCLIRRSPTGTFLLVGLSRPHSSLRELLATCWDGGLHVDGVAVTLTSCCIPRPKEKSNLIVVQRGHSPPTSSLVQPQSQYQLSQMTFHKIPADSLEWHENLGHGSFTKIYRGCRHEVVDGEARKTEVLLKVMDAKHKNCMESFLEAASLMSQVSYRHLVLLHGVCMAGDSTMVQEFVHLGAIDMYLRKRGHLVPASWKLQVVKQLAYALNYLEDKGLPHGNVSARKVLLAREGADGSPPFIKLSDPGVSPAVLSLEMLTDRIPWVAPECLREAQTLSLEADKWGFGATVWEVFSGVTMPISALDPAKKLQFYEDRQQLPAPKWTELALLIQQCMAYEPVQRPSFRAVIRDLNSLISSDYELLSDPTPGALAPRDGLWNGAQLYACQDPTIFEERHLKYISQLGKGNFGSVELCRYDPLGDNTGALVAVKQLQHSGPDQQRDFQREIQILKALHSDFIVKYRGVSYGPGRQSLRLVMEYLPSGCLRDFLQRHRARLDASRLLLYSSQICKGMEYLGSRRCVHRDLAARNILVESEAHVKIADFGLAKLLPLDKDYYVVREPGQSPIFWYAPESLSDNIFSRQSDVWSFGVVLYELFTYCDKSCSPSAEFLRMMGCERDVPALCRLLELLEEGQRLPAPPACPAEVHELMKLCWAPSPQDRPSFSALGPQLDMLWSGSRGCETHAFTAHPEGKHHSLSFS
Method in brief: (§1)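 Kinase activity is measured by separating phosphorylated from unphosphorylated peptide on a microfluidic chip. Per enzyme batch, protein concentration and incubation time are optimized to give 20%-30% substrate turnover.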

[2] = system: IL-15 induced P-STAT5 in human PBMC; assay: PBMC IL-15 Induced P-STAT5; type: cell-based; settings: human PBMC, IL-15 final 41 ng/mL; read-out: PBMC IL15_pSTAT5_IC50
Method in brief: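 Flow cytometry gated on total lymphocytes measured STAT5 staining (Alexa Fluor 647 antibody, overnight, 4 °C) in fixed, methanol-permeabilised human PBMC. Cells had received compound for 15 min at 37 °C (0.2% DMSO final), followed by 41 ng/mL final human IL-15 for 15 min.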

[3] = molecular target: T1, JAK3 enzyme; assay: JAK Caliper Enzyme Assay at 1 mM ATP; type: biochemical
Method in brief: as §1

IC50 [1] [µM] | IC50 [3] [µM] | Structure (SMILES) | IC50 [2] [µM]
0.00307 | 0.365 | C=CC(=O)N1CCN(c2cnc3[nH]cc(C(=O)N[C@@H](C)C(=O)OC)c3n2)CC1(C)C [Example 158, Methyl N-{[2-(4-acryloyl-3,3-dimethylpiperazin-1-yl)-5H-pyrrolo[2,3-b]pyrazin-7-yl]carbonyl}-L-alaninate] | 0.888
0.00133 | 0.092 | C=CC(=O)N1CC[C@@H](Nc2cnc3[nH]cc(C(=O)NCC)c3n2)[C@H](OC)C1 (racemic) [Example 25, Trans-racemic-2-{[1-acryloyl-3-methoxypiperidin-4-yl]amino}-N-ethyl-5H-pyrrolo[2,3-b]pyrazine-7-carboxamide] | 1.6
0.00463 | 0.742 | C=CC(=O)N1CCN(c2cnc3[nH]cc(C(=O)NCCOC)c3n2)CC1(C)C [Example 265, 2-(4-acryloyl-3,3-dimethylpiperazin-1-yl)-N-(2-methoxyethyl)-5H-pyrrolo[2,3-b]pyrazine-7-carboxamide] | 2.06
0.000984 | 0.157 | C=CC(=O)N1CCN(c2cnc3[nH]cc(C(=O)NCC4CC(F)(F)C4)c3n2)C[C@@H]1CC(C)C [Example 274, 2-[(3S)-4-acryloyl-3-(2-methylpropyl)piperazin-1-yl]-N-[(3,3-difluorocyclobutyl)methyl]-5H-pyrrolo[2,3-b]pyrazine-7-carboxamide] | 0.507
0.00307 | 0.343 | C=CC(=O)N1CCC(Oc2cnc3[nH]cc(C(=O)NC(CC)C4(O)CCC4)c3n2)CC1 (racemic) [Example 213, Racemic-2-[(1-acryloylpiperidin-4-yl)oxy]-N-[1-(1-hydroxycyclobutyl)propyl]-5H-pyrrolo[2,3-b]pyrazine-7-carboxamide] | 1.72
0.00167 | 0.329 | C=CC(=O)N(C)C1CN(c2cnc3[nH]cc(C(=O)NCCOC)c3n2)C1 [Example 84, 2-{3-[acryloyl(methyl)amino]azetidin-1-yl}-N-(2-methoxyethyl)-5H-pyrrolo[2,3-b]pyrazine-7-carboxamide] | 1.22
0.00102 | 0.073 | C=CC(=O)N1CCC(C)(Nc2cnc3[nH]cc(C(=O)NCC)c3n2)CC1 [Example 281, 2-[(1-acryloyl-4-methylpiperidin-4-yl)amino]-N-ethyl-5H-pyrrolo[2,3-b]pyrazine-7-carboxamide] | 1.22
0.00129 | 0.209 | C=CC(=O)N1CCN(c2cnc3[nH]cc(C(=O)NC4CCC4)c3n2)CC1(C)C [Example 289, 2-(4-acryloyl-3,3-dimethylpiperazin-1-yl)-N-cyclobutyl-5H-pyrrolo[2,3-b]pyrazine-7-carboxamide] | 0.454
0.000681 | 0.043 | C=CC(=O)N1CCC(Nc2cnc3[nH]cc(C(=O)NCc4cc(C5CCC5)nn4C)c3n2)CC1 [Example 173, 2-[(1-acryloylpiperidin-4-yl)amino]-N-[(3-cyclobutyl-1-methyl-1H-pyrazol-5-yl)methyl]-5H-pyrrolo[2,3-b]pyrazine-7-carboxamide] | 1.42
0.000627 | 0.029 | C=CC(=O)N1CCC(Nc2cnc3[nH]cc(C(=O)NCc4cnn(-c5cccc(F)c5)c4)c3n2)CC1 [Example 192, 2-[(1-acryloylpiperidin-4-yl)amino]-N-{[1-(3-fluorophenyl)-1H-pyrazol-4-yl]methyl}-5H-pyrrolo[2,3-b]pyrazine-7-carboxamide] | 0.907
0.000392 | 0.069 | C=CC(=O)N1CC[C@@H](Nc2cnc3[nH]cc(C(=O)NC[C@H](C)CC(F)(F)F)c3n2)[C@@H](OC)C1 [Example 323, 2-{[(3S,4R)-1-acryloyl-3-methoxypiperidin-4-yl]amino}-N-[(2R)-4,4,4-trifluoro-2-methylbutyl]-5H-pyrrolo[2,3-b]pyrazine-7-carboxamide] | 0.43

Structure (SMILES) | IC50 [1] [µM] | IC50 [3] [µM] | IC50 [2] [µM]
C=CC(=O)N1C[C@H](Nc2ncnc3[nH]ccc23)CC[C@@H]1[C@H](C)O (racemic) [Example 112] | 0.00103 | 0.181 | 1.01
